Laboratory results taken from ChEMBL document CHEMBL3885881, “DrugMatrix”.

Organism: Rattus norvegicus
Assay: DrugMatrix - Regimen: Daily Repeat
Format: toxicity, organism-based, Sprague-Dawley
Set-up: regimen Daily Repeat, gender Male, age 6-8 weeks
Settings: in vivo, po, route oral GAVAGE, […]; for ABSOLUTE BASOPHIL / ABSOLUTE EOSINOPHIL / ABSOLUTE LYMPHOCYTE / ABSOLUTE MONOCYTE / ABSOLUTE SEGMENTED NEUTROPHIL / BASOPHIL / EOSINOPHIL / ERYTHROCYTE COUNT / HEMATOCRIT / HEMOGLOBIN / LEUKOCYTE COUNT / LYMPHOCYTE / MEAN CORPUSCULAR HEMOGLOBIN / MEAN CORPUSCULAR HEMOGLOBIN CONCENTRATION / MEAN CORPUSCULAR VOLUME / MONOCYTE / NEUTROPHIL / NUCLEATED RED BLOOD CELLS / PLATELET COUNT: tissue Blood; for ALANINE AMINOTRANSFERASE / ALBUMIN / ALKALINE PHOSPHATASE / ASPARTATE AMINOTRANSFERASE / BLOOD UREA NITROGEN / CARBON DIOXIDE / CHLORIDE / CHOLESTEROL / CREATINE PHOSPHOKINASE / CREATININE / GLUCOSE / LACTATE DEHYDROGENASE / LIPASE / PHOSPHORUS / POTASSIUM / SODIUM / TOTAL BILIRUBIN / TOTAL PROTEIN / URIC ACID: tissue Plasma
[1] = 0 mg/kg, 72 h, dose level Control, time 3 day
[2] = 0 mg/kg, 120 h, dose level Control, time 5 day
[3] = 0 mg/kg, dose level Control, time 28 day
[4] = 20 mg/kg, 72 h, dose level Low, time 3 day

SMILES: CCCCCCCCCc1ccc(O)cc1 [4-NONYLPHENOL]
- ABSOLUTE BASOPHIL [1]: 0 CELLS/uL
- ABSOLUTE EOSINOPHIL [1]: 0 CELLS/uL
- ABSOLUTE LYMPHOCYTE [1]: 11091.17 CELLS/uL
- ABSOLUTE MONOCYTE [1]: 172.17 CELLS/uL
- ABSOLUTE SEGMENTED NEUTROPHIL [1]: 1186.67 CELLS/uL
- BASOPHIL [1]: 0%
- EOSINOPHIL [1]: 0%
- ERYTHROCYTE COUNT [1]: 5.87 x10E6/uL
- HEMATOCRIT [1]: 36.87%
- HEMOGLOBIN [1]: 14.03 G/DL
- LEUKOCYTE COUNT [1]: 12.45 x10E3/uL
- LYMPHOCYTE [1]: 88.67%
- MEAN CORPUSCULAR HEMOGLOBIN [1]: 23.93 pg
- MEAN CORPUSCULAR HEMOGLOBIN CONCENTRATION [1]: 38.1 G/DL
- MEAN CORPUSCULAR VOLUME [1]: 62.73 fL
- MONOCYTE [1]: 1.5%
- NEUTROPHIL [1]: 9.83%
- NUCLEATED RED BLOOD CELLS [1]: 0 /100WBC
- PLATELET COUNT [1]: 1150.33 x10E3/uL
- ALANINE AMINOTRANSFERASE [1]: 67.17 u/L
- ALBUMIN [1]: 4.03 G/DL
- ALKALINE PHOSPHATASE [1]: 462.5 u/L
- ASPARTATE AMINOTRANSFERASE [1]: 88 u/L
- BLOOD UREA NITROGEN [1]: 13.17 mg/dL
- CARBON DIOXIDE [1]: 29.33 mmol/L
- CHLORIDE [1]: 101 MEQ/L
- CHOLESTEROL [1]: 69.17 mg/dL
- CREATINE PHOSPHOKINASE [1]: 292.5 u/L
- CREATININE [1]: 0.17 mg/dL
- GLUCOSE [1]: 167.5 mg/dL
- LACTATE DEHYDROGENASE [1]: 198.5 u/L
- LIPASE [1]: 10.67 u/L
- PHOSPHORUS [1]: 11.73 mg/dL
- POTASSIUM [1]: 5.91 MEQ/L
- SODIUM [1]: 143.3 MEQ/L
- TOTAL BILIRUBIN [1]: 0.18 mg/dL
- TOTAL PROTEIN [1]: 5.7 G/DL
- URIC ACID [1]: 1.3 mg/dL
- ABSOLUTE BASOPHIL [2]: 0 CELLS/uL
- ABSOLUTE EOSINOPHIL [2]: 64.33 CELLS/uL
- ABSOLUTE LYMPHOCYTE [2]: 12494.67 CELLS/uL
- ABSOLUTE MONOCYTE [2]: 117 CELLS/uL
- ABSOLUTE SEGMENTED NEUTROPHIL [2]: 1340.67 CELLS/uL
- NUCLEATED RED BLOOD CELLS [2]: 0 /100WBC
- CARBON DIOXIDE [2]: 29.17 mmol/L
- LACTATE DEHYDROGENASE [2]: 229.17 u/L
- LIPASE [2]: 10.83 u/L
- URIC ACID [2]: 1.55 mg/dL
- BASOPHIL [3]: 0.42%
- EOSINOPHIL [3]: 0.58%
- ERYTHROCYTE COUNT [3]: 8.06 x10E6/uL
- HEMATOCRIT [3]: 48.44%
- HEMOGLOBIN [3]: 16.34 G/DL
- LEUKOCYTE COUNT [3]: 13.04 x10E3/uL
- LYMPHOCYTE [3]: 85.12%
- MEAN CORPUSCULAR HEMOGLOBIN [3]: 20.26 pg
- MEAN CORPUSCULAR HEMOGLOBIN CONCENTRATION [3]: 33.74 G/DL
- MEAN CORPUSCULAR VOLUME [3]: 60.1 fL
- MONOCYTE [3]: 1.44%
- NEUTROPHIL [3]: 11.28%
- PLATELET COUNT [3]: 1226 x10E3/uL
- ALANINE AMINOTRANSFERASE [3]: 28.6 u/L
- ALBUMIN [3]: 3.94 G/DL
- ALKALINE PHOSPHATASE [3]: 254.6 u/L
- ASPARTATE AMINOTRANSFERASE [3]: 67.8 u/L
- BLOOD UREA NITROGEN [3]: 10.4 mg/dL
- CHLORIDE [3]: 104.6 MEQ/L
- CHOLESTEROL [3]: 57.6 mg/dL
- CREATINE PHOSPHOKINASE [3]: 224.8 u/L
- CREATININE [3]: 0.4 mg/dL
- GLUCOSE [3]: 140.6 mg/dL
- PHOSPHORUS [3]: 10.66 mg/dL
- POTASSIUM [3]: 6.58 MEQ/L
- SODIUM [3]: 148.6 MEQ/L
- TOTAL BILIRUBIN [3]: 0.24 mg/dL
- TOTAL PROTEIN [3]: 6.64 G/DL
- ABSOLUTE BASOPHIL [4]: 0 CELLS/uL
- ABSOLUTE EOSINOPHIL [4]: 45.67 CELLS/uL
- ABSOLUTE LYMPHOCYTE [4]: 11853.67 CELLS/uL
- ABSOLUTE MONOCYTE [4]: 45.67 CELLS/uL
- ABSOLUTE SEGMENTED NEUTROPHIL [4]: 988.33 CELLS/uL
- BASOPHIL [4]: 0%
- EOSINOPHIL [4]: 0.33%
- ERYTHROCYTE COUNT [4]: 5.99 x10E6/uL
- HEMATOCRIT [4]: 37.03%
- HEMOGLOBIN [4]: 14.3 G/DL
- LEUKOCYTE COUNT [4]: 12.93 x10E3/uL
- LYMPHOCYTE [4]: 91.67%
- MEAN CORPUSCULAR HEMOGLOBIN [4]: 23.9 pg
- MEAN CORPUSCULAR HEMOGLOBIN CONCENTRATION [4]: 38.6 G/DL
- MEAN CORPUSCULAR VOLUME [4]: 61.9 fL
- MONOCYTE [4]: 0.33%
- NEUTROPHIL [4]: 7.67%
- NUCLEATED RED BLOOD CELLS [4]: 0 /100WBC
- PLATELET COUNT [4]: 1126 x10E3/uL
- ALANINE AMINOTRANSFERASE [4]: 75.33 u/L
- ALBUMIN [4]: 3.8 G/DL
- ALKALINE PHOSPHATASE [4]: 451.33 u/L
- ASPARTATE AMINOTRANSFERASE [4]: 100 u/L
- BLOOD UREA NITROGEN [4]: 13 mg/dL
- CARBON DIOXIDE [4]: 24.67 mmol/L
- CHLORIDE [4]: 102.67 MEQ/L
- CHOLESTEROL [4]: 62.67 mg/dL
- CREATINE PHOSPHOKINASE [4]: 371 u/L
- CREATININE [4]: 0.19 mg/dL
- GLUCOSE [4]: 168.67 mg/dL
- LACTATE DEHYDROGENASE [4]: 255.33 u/L
- LIPASE [4]: 9.67 u/L
- PHOSPHORUS [4]: 11.97 mg/dL
- POTASSIUM [4]: 5.3 MEQ/L
- SODIUM [4]: 143.8 MEQ/L
- TOTAL BILIRUBIN [4]: 0.2 mg/dL
- TOTAL PROTEIN [4]: 5.33 G/DL
- URIC ACID [4]: 1.77 mg/dL
